Data taken from paper PMC6692079 (Journal of medicinal chemistry, 2018).
Entries after “also recorded” stand apart in the source; their conditions may differ. Structures can show the parent of a compound that is named as a salt. Where two headings read alike, the source gives them in different places.

Experiments:
[1] = molecular target: T1, human δ opioid receptor (Homo sapiens, UniProt P41143); assay: biochemical
[2] = molecular target: T2, human κ opioid receptor (Homo sapiens, UniProt P41145); assay: biochemical; type: biochemical; conditions: for δ/κ: selectivity for κ relative to δ
T2 sequence (P41145 whole entry): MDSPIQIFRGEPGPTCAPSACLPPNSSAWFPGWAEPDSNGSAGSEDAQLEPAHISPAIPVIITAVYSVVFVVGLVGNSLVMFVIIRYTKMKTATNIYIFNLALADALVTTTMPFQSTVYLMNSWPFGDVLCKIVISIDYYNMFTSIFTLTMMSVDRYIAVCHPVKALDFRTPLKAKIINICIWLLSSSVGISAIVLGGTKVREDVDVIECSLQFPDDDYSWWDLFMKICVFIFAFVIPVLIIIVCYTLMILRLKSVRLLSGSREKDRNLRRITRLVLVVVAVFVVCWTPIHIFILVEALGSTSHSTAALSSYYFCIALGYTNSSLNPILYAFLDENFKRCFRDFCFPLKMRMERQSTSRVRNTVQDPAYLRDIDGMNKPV

[3] = molecular target: T1, human δ opioid receptor; conditions: cloned human receptor, cited from earlier work
[4] = molecular target: T2, human κ opioid receptor; conditions: cloned human receptor, cited from earlier work
[5] = molecular target: T3, human μ opioid receptor (Homo sapiens, UniProt P35372); assay: biochemical
T3 sequence (P35372 whole entry): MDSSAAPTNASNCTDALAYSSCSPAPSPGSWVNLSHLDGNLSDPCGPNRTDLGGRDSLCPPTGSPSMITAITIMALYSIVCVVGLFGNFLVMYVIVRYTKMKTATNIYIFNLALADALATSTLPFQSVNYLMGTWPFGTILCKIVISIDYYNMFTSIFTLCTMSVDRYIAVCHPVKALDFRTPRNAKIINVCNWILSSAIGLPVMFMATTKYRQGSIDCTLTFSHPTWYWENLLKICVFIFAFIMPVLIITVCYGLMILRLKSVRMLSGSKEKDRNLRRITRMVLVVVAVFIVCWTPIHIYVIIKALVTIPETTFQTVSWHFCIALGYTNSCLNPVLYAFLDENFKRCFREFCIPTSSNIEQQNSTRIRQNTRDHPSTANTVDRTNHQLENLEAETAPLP

[6] = Pharmacokinetics in plasma and brain after a single sc dose; type: in vivo, Male Sprague—Dawley rats; conditions: 5 mg/kg sc
[7] = molecular target: T3, human μ opioid receptor; conditions: cloned human receptor; cited from earlier work
[8] = 5 mg/kg in male rats, cited from earlier work

T1 sequence (P41143 whole entry): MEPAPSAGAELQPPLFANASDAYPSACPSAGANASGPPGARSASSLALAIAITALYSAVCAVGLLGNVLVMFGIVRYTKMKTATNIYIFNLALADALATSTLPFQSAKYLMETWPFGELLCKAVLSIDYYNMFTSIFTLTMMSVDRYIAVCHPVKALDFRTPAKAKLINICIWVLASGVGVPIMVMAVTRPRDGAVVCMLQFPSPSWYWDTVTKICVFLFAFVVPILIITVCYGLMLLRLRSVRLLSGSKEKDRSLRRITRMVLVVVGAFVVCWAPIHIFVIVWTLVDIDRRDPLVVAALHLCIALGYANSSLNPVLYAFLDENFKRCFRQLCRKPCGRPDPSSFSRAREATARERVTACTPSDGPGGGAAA

| Structure (SMILES) | Kb [1] [µM] | δ/κ ([2]; ratio of Ke values) | also measured |
| --- | --- | --- | --- |
| CC(C)[C@@H](CN1CCCCC1C)NC(=O)[C@H]1Cc2ccc(O)cc2CN1 (mixture of isomers) [Compound 14, (3R)-7-Hydroxy-N-{(1S)-2-methyl-1-[((2RS)-2-methylpiperidin-1-yl)methyl]propyl}−1,2,3,4-tetrahydroisoquinoline-3-carboxamide Dihydrochloride] | > 3 | >199 |  |
| CC(C)[C@@H](CN1CCCCC1)NC(=O)[C@H]1Cc2ccc(O)cc2CN1 [Compound 1, (3R)‑7-Hydroxy‑N‑[(1S)‑2-methyl-1-(piperidin-1-ylmethyl)propyl]-1,2,3,4-tetrahydroisoquinoline-3-carboxamide] |  |  | Ke δ, DPDPE ([3]; previously reported): >3000 nM; Ke κ, U69,593 ([4]; previously reported): 6.80 ± 2.1 nM |
| CC(C)[C@@H](CN1CCOCC1)NC(=O)[C@H]1Cc2ccc(O)cc2CN1 [Compound 6, (3R)-7-Hydroxy-N-[(1S)-2-methyl-1-(morpholin-4-ylmethyl)-propyl]-1,2,3,4-tetrahydroisoquinoline-3-carboxamide Dihydrochloride] | > 3 |  |  |
| CC(C)[C@@H](CN1CCN(C)CC1)NC(=O)[C@H]1Cc2ccc(O)cc2CN1 [Compound 7, (3R)-7-Hydroxy-N-{(1S)-2-methyl-1-[(4-methylpiperizin-1-yl)-methyl]propyl}−1,2,3,4-tetrahydroisoquinoline-3-carboxamide Trihydrochloride] | > 3 | >30 |  |
| CCN(CC)C[C@@H](NC(=O)[C@H]1Cc2ccc(O)cc2CN1)C(C)C [Compound 8, (3R)-N-{(1S)-1-[(4,4-Diethylamino)methyl]-2-methylpropyl]-7-hydroxy-1,2,3,4-tetrahydroisoquinoline-3-carboxamide Dihydrochloride] | > 3 | >72 | Kb [5]: 0.69 ± 0.11 µM; Kb [2]: 0.0418 ± 0.012 µM |
| CC(C)CN(CC(C)C)C[C@@H](NC(=O)[C@H]1Cc2ccc(O)cc2CN1)C(C)C [Compound 10, (3R)-N-{(1S)-1-{[Bis(2-methylpropyl)amino]methyl}−2-methyl-propyl]-7-hydroxy-1,2,3,4-tetrahydroisoquinoline-3-carboxamide Dihydrochloride] | > 3 |  |  |
| CC1CCN(C[C@@H](NC(=O)[C@H]2Cc3ccc(O)cc3CN2)C(C)C)CC1 [Compound 12, (3R)-7-Hydroxy-N-{(1S)-2-methyl-1-[(4-methylpiperidin-1-yl)-methyl]propyl}−1,2,3,4-tetrahydroisoquinoline-3-carboxamide Dihydrochloride] | > 3 |  | persistence in plasma and brain post dose ([6]; last sampling time): 168 h; clearance ([6]; plasma): 2.625 L/h/kg; brain penetration ([6]; rats, 5 mg/kg): does indeed penetrate the brain; also recorded: crossed the blood—brain barrier; also recorded: did indeed readily penetrate the brain |
| CC(C)[C@@H](CN1CCC(C)(C)CC1)NC(=O)[C@H]1Cc2ccc(O)cc2CN1 [Compound 18, (3R)-N-{(1S)-1-[(4,4-Dimethylpiperidin-1-yl)methyl]-2-methylpropyl}−7-hydroxy-1,2,3,4-tetrahydroisoquinoline-3-carboxamide Dihydrochloride] |  |  | Kb [2]: 0.00357 ± 0.0015 µM |
| CC(C)[C@@H](CN1CCC(C(F)(F)F)CC1)NC(=O)[C@H]1Cc2ccc(O)cc2CN1 [Compound 20, (3R)-7-Hydroxy-N-[(1S)-2-methyl-1-{[4-(trifluoromethyl)-piperidin-1-yl]methyl}propyl]-1,2,3,4-tetrahydroisoquinoline-3-carboxamide Dihydrochloride] | > 3 | >640 |  |
| COC1CCN(C[C@@H](NC(=O)[C@H]2Cc3ccc(O)cc3CN2)C(C)C)CC1 [Compound 22, (3R)-7-Hydroxy-N-{(1S)-2-methyl-1-[(4-methoxypiperidin-1-yl)-methyl]propyl}−1,2,3,4-tetrahydroisoquinoline-3-carboxamide Dihydrochloride] | > 3 | >459 |  |
| CC(C)[C@@H](CN1CCC(N(C)C)CC1)NC(=O)[C@H]1Cc2ccc(O)cc2CN1 [Compound 23, (3R)-N-[(1S)-1-{[4-(Dimethylamino)piperidin-1-yl]methyl}−2-methylpropyl]-7-hydroxy-1,2,3,4-tetrahydroisoquinoline-3-carboxamide Trihydrochloride] | > 3 | >371 |  |
| CC(C)[C@@H](CN1CCC(F)(F)CC1)NC(=O)[C@H]1Cc2ccc(O)cc2CN1 [Compound 24, (3R)-N-{[(1S)-1-[4,4-Difluoropiperidin-1-yl]methyl]-2-methyl-propyl}−7-hydroxy-1,2,3,4-tetrahydroisoquinoline-3-carboxamide Dihydrochloride] | > 3 | >254 |  |
| CC(C)[C@@H](CN1CCC(C#N)CC1)NC(=O)[C@H]1Cc2ccc(O)cc2CN1 [Compound 25, (3R)-N-{(1S)-1-[(4-Cyanopiperidin-1-yl)methyl]-2-methylprolyl}−7-hydroxy-1,2,3,4-tetrahydroisoquinoline-3-carboxamide Dihydrochloride] | > 3 | >236 |  |
| CC(C)[C@@H](CN1CCC(C(N)=O)CC1)NC(=O)[C@H]1Cc2ccc(O)cc2CN1 [Compound 26] | > 3 | >932 |  |
| CC1CCN(C[C@@H](NC(=O)[C@H](N)Cc2ccc(O)cc2)C(C)C)CC1 [Compound 36, N-{(1S)-2-Methyl-1-[(4-methylpiperidin-1-yl)methyl]propyl}-D-ty-rosinamide Dihydrochloride] | > 3 | >8 | Kb [5]: > 3 µM; Kb [2]: 0.387 ± 0.089 µM; fold loss in κ opioid receptor antagonist potency relative to 12 [2]: over 1000; μ/κ ([2]; ratio of Ke values, selectivity for κ relative to μ): >8 |
| CC(C)[C@@H](CN1CC[C@@](C)(c2cccc(O)c2)[C@@H](C)C1)NC(=O)[C@H]1Cc2ccc(O)cc2CN1C [Compound 46, reference compound] |  |  | Ke δ, DPDPE [3]: 491 ± 120 nM; Ke μ, DAMGO [7]: 210 ± 60 nM; Ke κ, U69,593 [4]: 0.16 ± 0.06 nM |
| CC(C)[C@@H](CN1CC[C@@](C)(c2cccc(O)c2)[C@@H](C)C1)NC(=O)[C@H]1Cc2ccc(O)cc2CN1 [JDTic, (3R)-1,2,3,4-tetrahydro-7-hydroxy-N-[(1S)-1-[[(3R,4R)-4-(3-hydroxy-phenyl)-3,4-dimethyl-1-piperidinyl]methyl]-2-methylpropyl]-3-iso-quinolinecarboxamide] |  |  | half-life ([8]; brain): 51.8 h; half-life ([8]; plasma): 28.4 h |
